# According to PubChem BioAssay (NCI):
# “And” between values parts separate entries of the source, which are not always exact repeats. Equal entries are not always repeated.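 Where inhibition never reached the appropriate level, the endpoint shown equals the highest concentration tested. Otherwise, values were interpolated linearly from a five-concentration, 48-hour dose response in 96-well plates. At the GI50, growth is halved. At the TGI there is no net growth.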
# What was measured:
# Test in all cases: DTP human tumour cell line panel, 48 h
# IGROV1 ovarian = tested on: IGROV1 ovarian
# SK-OV-3 ovarian = tested on: SK-OV-3 ovarian
# EKVX NSCLC = tested on: EKVX NSCLC
# KM12 colon = tested on: KM12 colon
# NCI-H522 lung = tested on: NCI-H522 lung
# SNB-19 CNS = tested on: SNB-19 CNS
# HCT-116 colon = tested on: HCT-116 colon
# COLO 205 colon = tested on: COLO 205 colon
# SF-295 CNS = tested on: SF-295 CNS
# A549 NSCLC = tested on: A549 NSCLC
Compound,GI50 (IGROV1 ovarian),TGI (IGROV1 ovarian),GI50 (SK-OV-3 ovarian),TGI (SK-OV-3 ovarian),GI50 (EKVX NSCLC),TGI (EKVX NSCLC) [µM],GI50 (KM12 colon),TGI (KM12 colon),GI50 (NCI-H522 lung),TGI (NCI-H522 lung),GI50 (SNB-19 CNS),TGI (SNB-19 CNS),GI50 (HCT-116 colon),TGI (HCT-116 colon),GI50 (COLO 205 colon),TGI (COLO 205 colon),GI50 (SF-295 CNS),TGI (SF-295 CNS),GI50 (A549 NSCLC),TGI (A549 NSCLC)
O=C(NCCCCCCNC(=O)OCc1ccc2c(Cl)cc(Cl)c(O)c2n1)OCc1ccc2c(Cl)cc(Cl)c(O)c2n1,0.57 µM,1.78 µM,5.5 µM,17.9 µM,1.51 µM,3.08,1.34 µM,2.95 µM,0.46 µM,2.1 µM,1.49 µM,2.91 µM,0.209 µM,0.693 µM,0.589 µM,2.19 µM,2.66 µM,6.99 µM,1.55 µM,3.62 µM
c1ccc2c(c1)[nH]c1c2ncc2[nH]c3ccccc3c21,,22.5 µM,,28.7 µM,,33.1,,10.3 µM,,21 µM,,10.7 µM,,3.35 µM,,6.83 µM,,11.4 µM,,22.6 µM
CNC(=O)CN1CCC(Oc2cc3c(Nc4cccc(Cl)c4F)ncnc3cc2OC)CC1,0.303 µM and 0.084 µM,5.37 µM and 4.3 µM,0.167 µM and 0.153 µM,5.73 µM and 1.82 µM,< 0.0147 µM and 0.0154 µM,,17.3 µM and > 5.89 µM,32.4 µM and > 10 µM,0.143 µM and 0.0614 µM,20.4 µM and > 10 µM,31.5 µM and > 8.29 µM,> 100 µM,14.8 µM and > 5.44 µM,28.5 µM and > 10 µM,13.9 µM and > 4.66 µM,29 µM and > 8.92 µM,12.5 µM and > 5.62 µM,29.3 µM and > 10 µM,5.66 µM and > 4.69 µM,22.9 µM and > 10 µM
CCCCCCCCCCCCCCCCCC[N+](C)(C)Cc1ccc(C[N+](C)(C)CCCCCCCCCCCCCCCCCC)cc1,,> 100 µM,,69.6 µM,,43.1,,39.4 µM,,> 100 µM,,76.1 µM,,32.5 µM,,> 100 µM,,24.2 µM,,38.8 µM
C/C(=C\c1ccn(-c2ccc(N)cc2F)n1)[C@@H]1C[C@@H]2O[C@]2(C)CCC[C@H](C)[C@H](O)[C@@H](C)C(=O)C(C)(C)[C@@H](O)CC(=O)O1,0.0448 µM,> 50 µM,0.172 µM,> 50 µM,0.36 µM,> 50,0.0156 µM,> 50 µM,0.0255 µM,0.171 µM,0.242 µM,> 50 µM,0.0169 µM,> 50 µM,0.0172 µM,0.442 µM,0.0576 µM,> 50 µM,0.0355 µM,> 50 µM
Cc1nc2sc(C(=O)Nc3cccc(Br)c3)c(N)c2cc1C(O)c1ccccc1 (stereo not given),1.94 µM,16.6 µM,1.76 µM,19.1 µM,1.2 µM,21,0.689 µM,12.6 µM,0.726 µM,> 28.4 µM,1.48 µM,18.9 µM,0.438 µM,16.2 µM,3.61 µM,20.2 µM,0.765 µM,12.1 µM,0.9 µM,> 71.3 µM
CSC1(CC(=O)N2CCCCC2)C(=O)Nc2ccccc21 (stereo not given),,> 100 µM,,> 100 µM,,> 100,,> 100 µM,,,,> 100 µM,,> 100 µM,,> 100 µM,,> 100 µM,,> 100 µM
CC[CH2][Sn]([CH2]CC)([O]C(=O)Cc1ccc(F)cc1)[O][Sn]([CH2]CC)([CH2]CC)[O]C(=O)Cc1ccc(F)cc1,0.718 µM,2.04 µM,0.774 µM,2.11 µM,0.569 µM,1.99,0.702 µM,2.06 µM,,0.0322 µM,0.443 µM,1.35 µM,0.218 µM,0.796 µM,0.266 µM,0.857 µM,0.587 µM,1.57 µM,1.88 µM,4.71 µM
Cn1c(=N)n[n+]([O-])c2ccccc21,,10.7 µM and 11.6 µM,,46.9 µM and 52.5 µM,,18.3,,37.8 µM and 36.7 µM,,10.7 µM and 15.6 µM,2.63 µM and 6.41 µM,12.3 µM and 13.3 µM,,> 100 µM,,5.3 µM and 5.52 µM,,4.49 µM and 15.2 µM,,23.1 µM and 29.8 µM
Cc1nn(C)c2cc(N(C)c3ccnc(Nc4cccc(S(N)(=O)=O)c4)n3)ccc12,5.98 µM,> 18.9 µM,> 11.8 µM,> 25 µM,6.92 µM,> 25,7.38 µM,> 25 µM,3.46 µM,19.2 µM,13.2 µM,> 25 µM,7.43 µM,> 25 µM,> 17.3 µM,> 25 µM,10.1 µM,> 25 µM,8.55 µM,> 25 µM
CC#CC(=O)N1CC[C@@H](n2c(=O)n(-c3ccc(Oc4ccccc4)cc3)c3c(N)ncnc32)C1,15.2 µM,60.8 µM,40.6 µM,> 100 µM,19.7 µM,> 100,32.9 µM,> 100 µM,10.8 µM,92.7 µM,37.4 µM,> 100 µM,24.8 µM,98.4 µM,36.6 µM,> 100 µM,29.5 µM,> 100 µM,55 µM,> 100 µM
COc1cnc2c(c1)C(=O)c1c-2n(CCCNC(C)C)c(=O)c2cc([N+](=O)[O-])ccc12,0.115 µM,1.43 µM,0.0409 µM,0.201 µM,0.134 µM,0.706,0.221 µM,0.981 µM,0.0233 µM,0.158 µM,0.0423 µM,0.896 µM,,,0.0293 µM,0.225 µM,0.0309 µM,0.221 µM,,
Fc1cccc(-c2[nH]nc3nc(Nc4cccnc4)sc23)c1,11.7 µM,> 100 µM,> 100 µM,> 100 µM,6.75 µM,> 100,0.631 µM,> 100 µM,13.7 µM,> 100 µM,,,0.595 µM,51.1 µM,3.3 µM,> 100 µM,3.82 µM,> 100 µM,4.18 µM,> 100 µM
Oc1c(CN2CCN(c3ccccc3F)CC2)cc(Br)c2cccnc12,0.808 µM,14.5 µM,1.45 µM,27.9 µM,,,0.672 µM,> 100 µM,0.662 µM,5.05 µM,1.14 µM,> 100 µM,0.546 µM,> 40.7 µM,16.1 µM,55 µM,2.92 µM,42.1 µM,0.546 µM,13 µM
